Experimental data published in the NIST ThermoML archive (doi:10.1021/je100083w).
± gives the expanded uncertainty stated by the source.

Settings: Liquid, Bellows volumetry

O [water]
specific volume (273.67 K, 199000 kPa): 0.0009252 ± 5e-07 m3/kg | specific volume (273.68 K, 348800 kPa): 0.0008889 ± 5e-07 m3/kg | specific volume (273.74 K, 298900 kPa): 0.0009003 ± 5e-07 m3/kg | specific volume (273.82 K, 350400 kPa): 0.0008893 ± 5e-07 m3/kg | specific volume (283.33 K, 199000 kPa): 0.000928 ± 5e-07 m3/kg | specific volume (283.36 K, 69000 kPa): 0.0009704 ± 5e-07 m3/kg | specific volume (283.39 K, 298700 kPa): 0.0009035 ± 5e-07 m3/kg | specific volume (283.43 K, 249000 kPa): 0.000915 ± 5e-07 m3/kg | specific volume (283.43 K, 349100 kPa): 0.0008928 ± 5e-07 m3/kg | specific volume (283.47 K, 199000 kPa): 0.0009281 ± 5e-07 m3/kg | specific volume (283.48 K, 149100 kPa): 0.0009425 ± 5e-07 m3/kg | specific volume (283.49 K, 149300 kPa): 0.0009423 ± 5e-07 m3/kg | specific volume (283.5 K, 69200 kPa): 0.0009702 ± 5e-07 m3/kg | specific volume (283.5 K, 248900 kPa): 0.0009152 ± 5e-07 m3/kg | specific volume (283.51 K, 98900 kPa): 0.0009592 ± 5e-07 m3/kg | specific volume (283.51 K, 99000 kPa): 0.0009591 ± 5e-07 m3/kg | specific volume (283.52 K, 148800 kPa): 0.0009426 ± 5e-07 m3/kg | specific volume (283.53 K, 198900 kPa): 0.000928 ± 5e-07 m3/kg | specific volume (283.54 K, 69000 kPa): 0.0009703 ± 5e-07 m3/kg | specific volume (283.54 K, 249100 kPa): 0.0009148 ± 5e-07 m3/kg | specific volume (283.56 K, 299300 kPa): 0.0009032 ± 5e-07 m3/kg | specific volume (283.6 K, 299000 kPa): 0.0009038 ± 5e-07 m3/kg | specific volume (283.62 K, 349300 kPa): 0.0008926 ± 5e-07 m3/kg | specific volume (283.7 K, 99000 kPa): 0.0009592 ± 5e-07 m3/kg | specific volume (283.72 K, 348000 kPa): 0.0008941 ± 5e-07 m3/kg | specific volume (293.2 K, 249000 kPa): 0.0009188 ± 5e-07 m3/kg | specific volume (293.22 K, 299000 kPa): 0.0009073 ± 5e-07 m3/kg | specific volume (293.23 K, 149200 kPa): 0.0009458 ± 5e-07 m3/kg | specific volume (293.25 K, 199000 kPa): 0.0009316 ± 5e-07 m3/kg | specific volume (293.28 K, 99300 kPa): 0.0009619 ± 5e-07 m3/kg | specific volume (293.31 K, 349200 kPa): 0.000897 ± 5e-07 m3/kg | specific volume (293.34 K, 349300 kPa): 0.0008968 ± 5e-07 m3/kg | specific volume (293.35 K, 69300 kPa): 0.0009728 ± 5e-07 m3/kg | specific volume (293.38 K, 299400 kPa): 0.0009073 ± 5e-07 m3/kg | specific volume (293.39 K, 199400 kPa): 0.0009315 ± 5e-07 m3/kg | specific volume (293.39 K, 249000 kPa): 0.0009189 ± 5e-07 m3/kg | specific volume (293.4 K, 99100 kPa): 0.000962 ± 5e-07 m3/kg | specific volume (293.41 K, 149100 kPa): 0.0009458 ± 5e-07 m3/kg | specific volume (293.42 K, 68900 kPa): 0.0009729 ± 5e-07 m3/kg | specific volume (293.46 K, 199100 kPa): 0.0009322 ± 5e-07 m3/kg | specific volume (293.47 K, 99200 kPa): 0.0009625 ± 5e-07 m3/kg | specific volume (293.49 K, 148800 kPa): 0.0009465 ± 5e-07 m3/kg | specific volume (293.5 K, 100 kPa): 0.001002 ± 5e-07 m3/kg | specific volume (293.52 K, 248900 kPa): 0.0009196 ± 5e-07 m3/kg | specific volume (293.53 K, 100 kPa): 0.001002 ± 5e-07 m3/kg | specific volume (293.53 K, 349200 kPa): 0.0008974 ± 5e-07 m3/kg | specific volume (293.54 K, 299000 kPa): 0.000908 ± 5e-07 m3/kg | specific volume (293.55 K, 100 kPa): 0.001002 ± 5e-07 m3/kg | specific volume (293.6 K, 69200 kPa): 0.0009732 ± 5e-07 m3/kg | specific volume (303.35 K, 98500 kPa): 0.0009655 ± 5e-07 m3/kg | specific volume (303.37 K, 69200 kPa): 0.0009758 ± 5e-07 m3/kg | specific volume (303.4 K, 98900 kPa): 0.0009651 ± 5e-07 m3/kg | specific volume (303.4 K, 148900 kPa): 0.000949 ± 5e-07 m3/kg | specific volume (303.41 K, 198900 kPa): 0.0009347 ± 5e-07 m3/kg | specific volume (303.42 K, 68900 kPa): 0.0009761 ± 5e-07 m3/kg | specific volume (303.42 K, 69800 kPa): 0.0009757 ± 5e-07 m3/kg
